These results are taken from patent US7238703B2, “Azabicyclic, azatricyclic and azaspirocyclic derivatives of aminocyclohexane NMDA, 5HT3, and neuronal nicotinic receptor antagonists” (priority 2002, dated 2007).

In data set [1] the test system is traction reflex. Put plainly: Myorelaxant action (traction reflex). The following applies: for Myorelaxation ED50: NMR female mice, i.p., traction reflex, in mg/kg; for TI Myorelaxation: ED50 myorelaxation divided by ED50 MES. The format is in vivo, mice. As for the experimental part:
(§1) NMR female mice (18-28 g) housed 5 per cage were used for the maximal electroshock (MES) and motor impairment tests. All animals were kept with water and food ad libitum under a 12 hour light-dark cycle (light on at 6 a.m.) and at a controlled temperature (20±0.5 °C.). All experiments were performed between 10 a.m. and 5 p.m. Tested agents were injected 30 min. i.p. before the induction of convulsions if not stated otherwise (see below). All compounds were dissolved in 0.9% saline.
(§2) The MES test was performed together with tests for myorelaxant action (traction reflex) and motor coordination (rotarod). For the traction reflex test mice were placed with their forepaws on a horizontal rod and were required to place all 4 paws on the wire within 10 seconds. To test ataxia (motor coordination) mice were placed on an accelerating rotarod and were required to remain on the rod for 1 minute. […] These tests were followed by MES (100 Hz, 0.5 second shock duration, 50 mA shock intensity, 0.9 ms impulse duration, Ugo Basile) applied through corneal electrodes. The presence of tonic convulsions was scored (tonic extension of hind paws with minimum angle to the body of 90[…]). The aim was to obtain ED50s for all parameters scored (anticonvulsive activity and motor side effects) with use of the Litchfield Wilcoxon test for quantal dose responses. Division of the ED50 for side effects (ataxia or myorelaxation) by the ED50 for antagonism of electroshock convulsions was used as a therapeutic index (TI).
(§3) Pearson product moment correlation analysis (Sigma Stat, Jandel Scientific) was used to compare in vitro potencies and in vivo anticonvulsant activity.

In data set [2] the target is NMDA receptor ([3H]-(+)-MK-801 site). Put plainly: [3H]-(+)-MK-801 receptor binding, rat cortex membranes. Conditions: for Ki: glycine 10 μM, glutamate 10 μM, mean, n=3. Here is the method: Male Sprague-Dawley rats (200-250 g) were decapitated and their brains were removed rapidly. The cortex was dissected and homogenized in 20 volumes of ice-cold 0.32 M sucrose using a glass-Teflon homogenizer. The homogenate was centrifuged at 1000× g for 10 min. The pellet was discarded and the supernatant centrifuged at 20,000× g for 20 min. The resulting pellet was re-suspended in 20 volumes of distilled water and centrifuged for 20 min at 8000× g. Then the supernatant and the buffy coat were centrifuged at 48,000× g for 20 min in the presence of 50 mM Tris-HCl, pH 8.0. The pellet was then re-suspended and centrifuged two to three more times at 48,000× g for 20 min in the presence of 50 mM Tris-HCl, pH 8.0. All centrifugation steps were carried out at 4° C. After resuspension in 5 volumes of 50 mM Tris-HCl, pH 8.0 the membrane suspension was frozen rapidly at −80° C.
On the day of assay the membranes were thawed and washed four times by resuspension in 50 mM Tris-HCl, pH 8.0 and centrifugation at 48,000× g for 20 min. and finally re-suspended in 50 mM Tris-HCl, pH 7.4. The amount of protein in the final membrane preparation (250-500 μg/ml) was determined according to the method of Lowry et al. (1951). Incubations were started by adding [^3H]-(+)-MK-801 (23.9 Ci/mmol, 5 nM, Dupont NEN) to vials with glycine (10 μM), glutamate (10 μM), and 125-250 μg protein (total volume 0.5 ml) and various concentrations of the agents tested (10 concentrations in duplicates). The incubations were continued at room temperature for 120 min (equilibrium was achieved under the conditions used). Non-specific binding was defined by the addition of unlabeled (+)-MK-801 (10 μM). Incubations were terminated using a Millipore filter system. The samples were rinsed twice with 4 ml of ice cold assay buffer over glass fibre filters (Schleicher & Schuell) under a constant vacuum. Following separation and rinse the filters were placed into scintillation liquid (5 ml; Ultima Gold) and radioactivity retained on the filters was determined with a conventional liquid scintillation counter (Hewlett Packard, Liquid Scintillation Analyser). […] Most antagonists were tested in 3 to 7 separate experiments.
IC50s in patch clamp and binding studies were calculated according to the four parameter logistic equation using the Grafit computer program (Erithacus Software, England). Ki value for binding studies were then determined according to Cheng and Prusoff. Binding values presented are means±SEM of 3-5 determinations (each performed in duplicate).

Data set [3] can be described thus: Ataxia / motor coordination (rotarod). The data set is classed as in vivo, mice. The following applies: mouse, in vivo, ip; NMR female mice, accelerating rotarod. As for the experimental part: as §1, §2
(§4) ED50s are presented with 95% confidence limits (Cl). Pearson product moment correlation analysis (Sigma Stat, Jandel Scientific) was used to compare in vitro potencies and in vivo anticonvulsant activity.

Data set [4] deals with tonic convulsions (MES). Put plainly: Maximal electroshock (MES) anticonvulsive test. The data set is classed as in vivo, mice. The following applies: Mus musculus, ip, read-out: MES ED50. Here is the method: as §1, §2, §4
The nature of data set [5]: Myorelaxant action (traction reflex). The following applies: mouse, in vivo, ip; NMR female mice, i.p., traction reflex; read-out: Myorelaxation ED50. The data set is classed as in vivo, mice. As for the experimental part:
as §1, §2, §3

Data set [6] relates to motor coordination (rotarod). Put plainly: Ataxia / motor coordination (rotarod). The data set is classed as in vivo, mice. The following applies: ED50 ataxia divided by ED50 MES. Here is the method: as §1, §2, §4
In general terms: The rotarod test checks motor coordination on a turning rod.

The target of data set [7] is T1, NR1a/2A receptors (Homo sapiens, UniProt Q05586+Q12879).
T1 construct: expressed in transfected cells; host or cells: Xenopus laevis oocytes injected with subunit RNA
Put plainly: NMDA receptor subtype expression in Xenopus oocytes, two-electrode voltage clamp. The format is cell-based. Here is the method:
Mature female Xenopus laevis were anaesthetized in 0.2% Tricaine on ice for 15 min prior to surgery. Oocytes were removed and incubated in 2 mg/ml collagenase (type II) in Ca^2+-free oocyte Ringer solution (82.5 mM NaCl, 2 mM KCl, 2 mM MgCl2, 5 mM HEPES, pH 7.5) for 30 min. at room temperature and washed thoroughly with OR-2 (100 mM NaCl, 2 mM KCl, 1 mM MgCl2, 2 mM CaCl2, 5 mM HEPES, pH 7.5). The remaining follicle cell layer was removed manually with fine forceps and the oocytes were kept in OR-2. The RNA was dissolved in DEPC-treated, sterile distilled water. RNA for the NMDA NR1a subunit was mixed 1:1 with RNA for the NR2A subunit. Likewise neuronal nicotinic α4 RNA was mixed 1:1 with RNA for the β2 subunit. Fifty to 100 nanoliters of each RNA mixture were injected in the oocyte's cytoplasm using a Nanoliter Injector (World Precision Instruments). The oocytes were incubated at 19° C. in OR-2 for the following 3 to 6 days.
The electrophysiological responses were obtained using the standard two-electrode voltage-clamp method (GeneClamp 500 amplifier), 2-6 days after injection. […] Recordings were made in a custom made chamber with 2 to 3 second exchange times. The bath solution was prepared Ca^2+-free, to avoid Ca^2+-induced Cl^− currents (100 mM NaCl, 2 mM KCl, 5 mM HEPES, 2 mM BaCl2, pH 7.35). NMDA receptors were activated by the manual co-application of 1 mM Glutamate and 10 μM Glycine for 30-40 secs every 2 to 3 mins to oocytes clamped at −70 mV. Neuronal nicotinic receptors were activated by application of 100 μM acetylcholine for 20-30 secs every 2 to 3 mins to oocytes clamped at −70 mV. After obtaining stable control responses, full concentration-response curves with antagonists were obtained by preincubating 6-7 different concentrations at log 3 intervals.
Only results from stable cells were accepted for inclusion in the final analysis i.e. showing at least 50% recovery of responses to NMDA following removal of the antagonist tested. Despite this, recovery from drug actions wasn't always 100% because of minor rundown or runup in some cells. When present, this was always compensated by basing the % antagonism at each concentration on both control and recovery and assuming a linear time course for this rundown. All antagonists were assessed at steady-state blockade with 6 to 7 concentrations on at least 4 cells. Equilibrium blockade was achieved within 1 to 3 agonist applications, depending on antagonist concentration.
Kinetic experiments were performed by applying various concentrations of unsaturated amino-alkyl-cyclohexanes (normally 5 in a log 3 dosing regime) for 10-20 seconds in the continuous presence of glutamate (100 μM and glycine 10 μM) for 90-180 seconds in Xenopus oocytes expressing NR1a/2A receptors. The perfusion system used for these experiments was a modified oocyte carousel system which allows rapid wash in and wash out of agonist and antagonist with change times less than one second. Exponential fits were made using the program TIDA for windows and most responses were well fitted by a single exponential. This same system was used to access the voltage-dependency of blockade, but the bath solution contained flufenamic acid (100 μM) to block endogenous voltage-activated and Ca^2+ activated Cl^− currents. Also, Ba^2+ (2 mM) was replaced by low concentrations of Ca^2+ (0.2 mM). Following equilibrium blockade by higher concentrations of antagonist (normally around 10 times the IC50), five ramps were driven from −70 mV to +30 mV over two seconds. Similar ramps were driven in bath solutions and for glutamate without antagonist, both before antagonist application and following recovery of responses. The leak currents in the absence of glutamate were substrated from the glutamate and glutamate plus antagonist curves. Voltage-dependency was then determined by comparing the glutamate and glutamate plus antagonist curves.
In general terms: Two-electrode voltage clamp holds a large cell at a set potential and records current.

Where [8] appears, read: Xenopus oocytes, N=6, read-out: NMDA IC50.

Structures can show the parent of a compound that is named as a salt. Where two headings read alike, the source gives them in different places. Where only a bound is given, the exact number is not on record here.

T1 sequence (Q12879 23-1464, other chains not shown): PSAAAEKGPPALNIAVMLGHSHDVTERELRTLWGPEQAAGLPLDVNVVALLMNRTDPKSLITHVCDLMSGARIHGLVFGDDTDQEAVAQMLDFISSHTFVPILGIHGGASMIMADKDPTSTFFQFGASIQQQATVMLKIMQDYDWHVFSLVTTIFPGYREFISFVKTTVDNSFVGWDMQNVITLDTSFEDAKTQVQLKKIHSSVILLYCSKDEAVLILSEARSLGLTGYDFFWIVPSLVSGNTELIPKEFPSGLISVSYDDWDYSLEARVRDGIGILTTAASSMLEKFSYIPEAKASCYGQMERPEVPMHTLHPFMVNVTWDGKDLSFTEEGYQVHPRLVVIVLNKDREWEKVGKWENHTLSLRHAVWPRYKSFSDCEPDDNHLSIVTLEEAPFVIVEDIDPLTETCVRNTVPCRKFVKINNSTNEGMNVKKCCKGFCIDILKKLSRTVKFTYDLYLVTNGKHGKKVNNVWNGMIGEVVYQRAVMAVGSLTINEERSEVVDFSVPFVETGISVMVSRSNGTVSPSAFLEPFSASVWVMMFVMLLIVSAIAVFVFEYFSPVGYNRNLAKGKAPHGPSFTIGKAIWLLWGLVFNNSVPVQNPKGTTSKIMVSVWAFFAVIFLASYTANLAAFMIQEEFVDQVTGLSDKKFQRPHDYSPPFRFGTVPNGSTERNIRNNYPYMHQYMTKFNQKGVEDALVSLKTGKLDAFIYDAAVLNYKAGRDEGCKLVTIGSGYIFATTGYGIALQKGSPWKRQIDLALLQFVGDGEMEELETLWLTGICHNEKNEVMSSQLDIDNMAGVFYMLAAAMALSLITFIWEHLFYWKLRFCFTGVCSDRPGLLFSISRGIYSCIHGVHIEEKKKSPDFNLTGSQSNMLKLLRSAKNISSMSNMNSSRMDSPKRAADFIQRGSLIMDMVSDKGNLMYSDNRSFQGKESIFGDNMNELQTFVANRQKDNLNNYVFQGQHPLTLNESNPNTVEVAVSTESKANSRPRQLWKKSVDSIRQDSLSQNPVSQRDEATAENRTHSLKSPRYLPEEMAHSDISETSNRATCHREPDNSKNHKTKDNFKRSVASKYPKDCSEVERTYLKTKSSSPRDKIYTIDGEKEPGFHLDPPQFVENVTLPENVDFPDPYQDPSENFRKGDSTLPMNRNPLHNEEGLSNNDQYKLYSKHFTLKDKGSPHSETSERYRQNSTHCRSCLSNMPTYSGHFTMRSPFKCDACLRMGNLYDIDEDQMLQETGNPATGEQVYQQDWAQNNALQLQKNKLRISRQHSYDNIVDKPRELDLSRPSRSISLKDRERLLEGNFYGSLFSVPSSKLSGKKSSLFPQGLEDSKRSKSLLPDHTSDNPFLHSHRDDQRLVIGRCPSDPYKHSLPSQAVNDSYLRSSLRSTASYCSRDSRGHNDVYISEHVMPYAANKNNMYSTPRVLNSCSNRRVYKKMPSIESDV

A word on the Ki: it is a dissociation constant, usually derived from enzyme kinetics or from competition with a known ligand. The term ED50 denotes the dose at which the effect has come halfway, by size or by number of responders. `CN1CC2(C)CC(C)(C)CC1(C)C2.Cl` (centres unmarked) [MRZ 2/1003, 1,3,3,5,6-Pentamethyl-6-azabicyclo [3.2.1]octane hydrochloride]: in data set [1], the “Myorelaxation ED50” value is reported as 16.77. For the same compound, in data set [2], the Ki was 7.4 µM. The same compound had an ED50 at 30 min in data set [3] of 20.6 mg/kg. For the same compound, the median effective dose (ED50) in data set [4] was 16.2 mg/kg.

For the compound `CC1(C)CC(C)(C)CC2(CCCN2)C1.Cl` [MRZ 2/1004, 7,7,9,9-Tetramethyl-1-azaspiro[4.5]decane hydrochloride], the ED50 at 30 min in data set [5] was found to be 27.5 mg/kg; in data set [3], 24 mg/kg. The “TI Myorelaxation” value in data set [1] was 1.14. Moreover, the inhibitory constant (Ki) in data set [2] worked out at 10.5 µM. For the same compound, the “TI Ataxia” value in data set [6] was 1.00. Besides, the 50% effective dose (ED50) in data set [4] (NMR female mice, i.p. 30 min before convulsions) was 24.1 mg/kg.

The term IC50 denotes the concentration at which inhibition is half-maximal. `CC1(C)CC2(C)CNC(C)(C1)C2.Cl` (centres unmarked) [MRZ 2/1010, 1,3,3,5-Tetramethyl-6-azabicyclo [3.2.1]octane hydrochloride]: in data set [1], the “Myorelaxation ED50” value is recorded as 10.62. In data set [7], half-maximal inhibition (IC50) was put at 0.76 µM. The compound also yielded a Hill in data set [7] (Xenopus oocytes expressing NR1a/2A, glutamate 100 μM, glycine 10 μM, -70 mV) of 0.63. In data set [2], the affinity corresponds to a Ki of 2.59 µM. In data set [3], this compound registered an ED50 at 30 min of 24.9 mg/kg. For the same compound, the 50% effective dose (ED50) in data set [4] amounted to 5.91 mg/kg.

For `CC1(C)CC(C)(C)CC2(CCCCN2)C1.Cl` [MRZ 2/1013, 8,8,10,10-Tetramethyl-1-azaspiro[5.5]undecane hydrochloride], the 50% effective dose (ED50) at 30 min is 34.5 mg/kg in data set [5] and 37.2 mg/kg in data set [3]. For the same compound, the “TI Myorelaxation” value in data set [1] was 3.67. In data set [7], this compound gave an IC50 of 4.72 µM. In data set [2], this compound came in with an inhibition constant (Ki) of 3.64 µM. Moreover, the “TI Ataxia” value in data set [6] turned out to be 3.97. In addition, the ED50 in data set [4] was found to be 9.39 mg/kg.

As to `CCC1CC2(C)CNC(C)(C1)C2` (stereo not drawn) [MRZ 2007, exo-3-Ethyl-1,5-dimethyl-6-azabicyclo[3.2.1]octane hydrochloride], the 50% effective dose (ED50) at 30 min in data set [5] is above 50 mg/kg; in data set [3] it was 50 mg/kg. Moreover, the IC50 in data set [7] (setting [8]) is 6.77 µM. In data set [2], this compound gave a Ki of 5.46 µM. The ED50 in data set [4] was above 50 mg/kg.

Take `CC1CC2(C)CNC(C)(C1)C2` (stereo not drawn) [MRZ 2011, 1,exo-3,5-Trimethyl-6-azabicyclo[3.2.1]octane hydrochloride]: the Ki in data set [2] was 15.8 µM.

`CCC12CC(C)(C)CC(C)(CN1)C2` (centres unmarked) [MRZ 2022, 5-Ethyl-1,3,3-trimethyl-6-azabicyclo[3.2.1]octane hydrochloride] showed an IC50 in data set [7] of 13.9 µM. In addition, affinity in data set [2] was put at a Ki of 14.4 µM.

Turning to `CCC12CC(C)CC(C)(CN1)C2` (stereo not drawn) [MRZ 2023, 5-Ethyl-1,exo-3-dimethyl-6-azabicyclo[3.2.1]octane hydrochloride], the 50% effective dose (ED50) at 30 min in data set [5] and in data set [3] was above 30 mg/kg in each case. Also, in data set [7] (setting [8]), the IC50 is 16.1 µM. This compound showed a Ki in data set [2] of 23.3 µM. Further, the ED50 in data set [4] is above 30 mg/kg.

For `CC1CC2(C)CC(C)(C1)C(c1ccccc1)N2` (stereo not drawn) [MRZ 2028, 1,exo-3,5-Trimethyl-exo,endo-7-phenyl-6-azabicyclo[3.2.1]octane hydrochloride], in data set [7] (setting [8]), the half-inhibitory concentration (IC50) turned out to be 10.3 µM. In data set [2], the Ki is 3.21 µM.

For `CC1CC2(C)CC(C)(C1)C(C)N2` (stereo not drawn) [MRZ 2029, 1,exo-3,5,exo,endo-7-Tetramethyl-6-azabicyclo[3.2.1]octane hydrochloride], the median effective dose (ED50) at 30 min in data set [5] and in data set [3] was above 50 mg/kg throughout. Besides, in data set [7] (setting [8]), the IC50 amounted to 36.1 µM. This compound also had a Ki in data set [2] of 13.2 µM. In data set [4], the ED50 was above 50 mg/kg.

A word on the Kd: it is the constant that tells how readily two partners part at equilibrium. On to “(+)-5-methyl-10,11-dihydro-5H-dibenzocyclohepten-5,10-imine maleate [[^3H]-(+)-MK-801, reference compound]”, for which the Kd in data set [2] (read-out: Kd of radioligand by Scatchard analysis) is 0.0046 µM.
